From US20130203756A1, “ISOINDOLINE PDE10 INHIBITORS” (priority 2010, published 2013)

Target: T1, human PDE10A2 (Homo sapiens, UniProt Q9Y233)
T1 construct: made in house; host or cells: AD293 cells, transient transfection; cytosolic supernatant of the sonicated lysate used as enzyme
Assay: PDE10 inhibitory activity, IMAP fluorescence polarization (FP) assay
Format: biochemical
Details: apparent inhibition constant, FAM-labeled cAMP 50 nM, room temperature, read-out: PDE10A Ki
Description: The activity of the compounds in accordance with the present invention as PDE10 inhibitors may be readily determined without undue experimentation using a fluorescence polarization (FP) methodology that is well known in the art (Huang, W., et al., J. Biomol Screen, 2002, 7: 215).
In a typical experiment the PDE 10 inhibitory activity of the compounds of the present invention was determined in accordance with the following experimental method. PDE10A2 was amplified from human fetal brain cDNA (Clontech, Mountain View, Calif.) using a forward primer corresponding to nucleotides 56-77 of human PDE10A2 (Accession No. AF127480, Genbank Identifier 4894716), containing a Kozak consensus sequence, and a reverse primer corresponding to nucleotides 2406-2413 of human PDE10A2 (Accession No. AF127480, Genbank Identifier 4894716). Amplification with Easy-A polymerase (Stratagene, La Jolla, Calif.) was 95° C. for 2 minutes followed by thirty three cycles of 95° C. for 40 seconds, 55° C. for 30 seconds, and 72° C. for 2 minutes 48 seconds. Final extension was 72° C. for 7 minutes. The PCR product was TA cloned into pcDNA3.2-TOPO (Invitrogen, Carlsbad, Calif.) according to standard protocol. AD293 cells with 70-80% confluency were transiently transfected with human PDE10A2/pcDNA3.2-TOPO using Lipofectamine 2000 according to manufacturer specifications (Invitrogen, Carlsbad, Calif.). Cells were harvested 48 hours post-transfection and lysed by sonication (setting 3, 10×5 sec pulses) in a buffer containing 20 mM HEPES, 1 mM EDTA and protease inhibitor cocktail (Roche). Lysate was collected by centrifugation at 75,000×g for 20 minutes. Supernatant containing the cytoplasmic fraction was used for evaluation of PDE10A2 activity. The fluorescence polarization assay for cyclic nucleotide phosphodiesterases was performed using an IMAP® FP kit supplied by Molecular Devices, Sunnyvale, Calif. (product #R8139). IMAP® technology has been applied previously to phosphodiesterase assays (Huang, W., et al., J. Biomol Screen, 2002, 7: 215). Assays were performed at room temperature in 384-well microtiter plates with an incubation volume of 20.2 μL. Solutions of test compounds were prepared in DMSO and serially diluted with DMSO to yield 8 μL of each of 10 solutions differing by 3-fold in concentration, at 32 serial dilutions per plate. 100% inhibition is determined using a known PDE10 inhibitor, which can be any compound that is present at 5,000 times its Ki value in the assay described as follows, such as papaverine (see Siuciak, et al. Neuropharmacology (2006) 51:386-396; Becker, et al. Behav Brain Res (2008) 186(2):155-60; Threlfell, et al., J Pharmacol Exp Ther (2009) 328(3):785-795), 2-{4-[pyridin-4-yl-1-(2,2,2-trifluoroethyl)-1H-pyrazol-3-yl]phenoxymethyl}quinoline succinic acid or 2-[4-(1-methyl-4-pyridin-4-yl-1H-pyrazol-3-yl)-phenoxymethyl]quinoline succinic acid (see Schmidt, et al. J Pharmacol Exp Ther (2008) 325:681-690; Threlfell, et al., J Pharmacol Exp Ther (2009) 328(3): 785-795), 0% of inhibition is determined by using DMSO (1% final concentrations).
A Labcyte Echo 555 (Labcyte, Sunnyvale, Calif.) is used to dispense […] from each well of the titration plate to the 384 well assay plate. A solution of enzyme (1/1600 dilution from aliquots; sufficient to produce 20% substrate conversion) and a separate solution of FAM-labeled cAMP PDE from Molecular Devices (product #R7506), at a final concentration of 50 nM are made in the assay buffer (10 mM Tris HCl, pH 7.2, 10 mM MgCl2, 0.05% NaN3 0.01% Tween-20, and 1 mM DTT). The enzyme and the substrate are then added to the assay plates in two consecutive additions of 10 μL, and then shaken to mix. The reaction is allowed to proceed at room temperature for 30 minutes. A binding solution is then made from the kit components, comprised of 80% Solution A, 20% Solution B and binding reagent at a volume of 1/600 the total binding solution. […]

T1 sequence (Q9Y233 267-1055): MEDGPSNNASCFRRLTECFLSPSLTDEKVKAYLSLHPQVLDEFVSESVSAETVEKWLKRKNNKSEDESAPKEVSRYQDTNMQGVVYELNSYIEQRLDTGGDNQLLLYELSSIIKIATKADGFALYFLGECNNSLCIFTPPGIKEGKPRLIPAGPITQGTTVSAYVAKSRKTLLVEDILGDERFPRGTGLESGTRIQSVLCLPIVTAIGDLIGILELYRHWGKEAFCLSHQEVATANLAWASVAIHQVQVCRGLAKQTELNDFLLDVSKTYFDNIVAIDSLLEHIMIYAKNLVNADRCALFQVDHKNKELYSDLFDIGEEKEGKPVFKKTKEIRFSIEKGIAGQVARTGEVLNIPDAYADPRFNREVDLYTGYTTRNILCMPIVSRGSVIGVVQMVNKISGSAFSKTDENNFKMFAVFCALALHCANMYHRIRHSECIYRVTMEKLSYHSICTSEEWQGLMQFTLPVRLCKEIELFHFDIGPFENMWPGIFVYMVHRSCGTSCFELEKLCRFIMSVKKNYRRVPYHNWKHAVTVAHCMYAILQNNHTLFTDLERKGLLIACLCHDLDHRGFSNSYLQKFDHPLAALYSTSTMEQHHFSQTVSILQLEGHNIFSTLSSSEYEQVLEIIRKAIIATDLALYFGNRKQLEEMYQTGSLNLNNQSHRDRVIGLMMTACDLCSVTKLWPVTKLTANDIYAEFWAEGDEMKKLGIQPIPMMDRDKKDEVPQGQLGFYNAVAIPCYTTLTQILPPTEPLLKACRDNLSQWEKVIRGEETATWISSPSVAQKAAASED

Row | SMILES | Ki
1 | Cc1ccc([C@@H]2C[C@H]2CN2Cc3c(cccc3-c3ncco3)C2=O)nc1 (single isomer, unassigned) [Compound 1-50, 2-{[(1S,2S) or (1R,2R)-2-(5-methylpyridin-2-yl)cyclopropyl]methyl}-4-(1,3-oxazol-2-yl)-2,3-dihydro-1H-isoindol-1-one] | 0.61 nM
2 | Cc1ccc([C@@H]2C[C@H]2CN2Cc3c(cccc3-n3cccn3)C2=O)nc1 (single isomer, unassigned) [Compound 1-54, 2-{[(1S,2S) or (1R,2R)-2-(5-methylpyridin-2-yl)cyclopropyl]methyl}-4-(1H-pyrazol-1-yl)-2,3-dihydro-1H-isoindol-1-one] | 0.86 nM
3 | COc1ccc(-n2c(CCN3Cc4cccc(OC(C)C)c4C3=O)nc3ccccc3c2=O)cc1 (single isomer, unassigned) [Compound B-6, 3-(4-methoxyphenyl)-2-{2-[1-oxo-7-(propan-2-yloxy)-1,3-dihydro-2H-isoindol-2-yl]ethyl}quinazolin-4(3H)-one] | 2.9 nM
4 | COc1ccc(-n2c(CCN3Cc4c(OC(C)C)cccc4C3=O)nc3ccccc3c2=O)cc1 (single isomer, unassigned) [Compound B-7, 3-(4-methoxyphenyl)-2-{2-[1-oxo-4-(propan-2-yloxy)-1,3-dihydro-2H-isoindol-2-yl]ethyl}quinazolin-4(3H)-one] | 1.2 nM
5 | O=C1c2cccc(-c3nccs3)c2CN1CCc1csc(-c2ccn[nH]2)n1 [Compound 1-40, 2-(2-(2-(1H-pyrazol-5-yl)thiazol-4-yl)ethyl)-4-(thiazol-2-yl)isoindolin-1-one] | 5.8 nM
6 | COc1ccc(-n2c(CCN3Cc4c(Br)cccc4C3=O)nc3ccccc3c2=O)cc1 [Compound A-3, 2-[2-(4-bromo-1-oxo-1,3-dihydro-2H-isoindol-2-yl)ethyl]-3-(4-methoxyphenyl)quinazolin-4(3H)-one] | 16 nM
7 | COc1ccc(-n2c(CCN3Cc4c(cccc4-c4ncco4)C3=O)nc3ccccc3c2=O)cc1 [Compound A-4, 3-(4-methoxyphenyl)-2-{2-[4-(1,3-oxazol-2-yl)-1-oxo-1,3-dihydro-2H-isoindol-2-yl]ethyl}quinazolin-4(3H)-one] | 0.19 nM
8 | COc1ccc(-c2cc3ccccc3nc2CCN2Cc3c(cccc3-c3ncco3)C2=O)cc1 [Compound C-5, 2-{2-[3-(4-methoxyphenyl)quinolin-2-yl]ethyl}-4-(1,3-oxazol-2-yl)-2,3-dihydro-1H-isoindol-1-one] | 0.011 nM
9 | CC(CN1Cc2c(cccc2-c2ncco2)C1=O)c1cn2ccccc2n1 (centres unmarked) [Compound E-5, 2-[2-(imidazo[1,2-a]pyridin-2-yl)propyl]-4-(1,3-oxazol-2-yl)-2,3-dihydro-1H-isoindol-1-one] | 5.7 nM
10 | Cn1cc(CNc2cc3c(c(-c4ncco4)n2)CN(CCc2cn4ccccc4n2)C3=O)cn1 [Compound J-9] | 11.2 nM
11 | O=C1c2cccc(-c3ncco3)c2CN1CC1CC1c1cn2ccccc2n1 (centres unmarked) [Compound M-6, 2-((2-(imidazo[1,2-a]pyridin-2-yl)cyclopropyl)methyl)-4-(oxazol-2-yl)isoindolin-1-one] | 0.14 nM

Next, values leading:

Row | Ki | SMILES
12 | 0.46 nM | O=C1c2cccc(-n3cccn3)c2CN1CCc1ccc2ccccc2n1 [Compound 1-17, 4-(1H-pyrazol-1-yl)-2-[2-(quinolin-2-yl)ethyl]-2,3-dihydro-1H-isoindol-1-one]
13 | 0.1 nM | O=C1c2cccc(-c3cscn3)c2CN1CCc1nc2ccccc2cc1C1CC1 [Compound 1-27, 2-[2-(3-cyclopropylquinolin-2-yl)ethyl]-4-(1,3-thiazol-4-yl)-2,3-dihydro-1H-isoindol-1-one]
14 | 1.2 nM | O=C1c2cccc(-c3cscn3)c2CN1CCc1ccc2c(n1)CCCC2O (centres unmarked) [Compound 1-28, 2-[2-(5-hydroxy-5,6,7,8-tetrahydroquinolin-2-yl)ethyl]-4-(1,3-thiazol-4-yl)-2,3-dihydro-1H-isoindol-1-one]
15 | 4.6 nM | O=C1c2cccc(-c3ncco3)c2CN1CCc1ccc2c(n1)CCCC2O (centres unmarked) [Compound 1-29, 2-[2-(5-hydroxy-5,6,7,8-tetrahydroquinolin-2-yl)ethyl]-4-(1,3-oxazol-2-yl)-2,3-dihydro-1H-isoindol-1-one]
16 | 10.9 nM | O=C1c2cccc(-n3cccn3)c2CN1CCc1ccc2ncccc2n1 [Compound D-4, 2-[2-(1,5-naphthyridin-2-yl)ethyl]-4-(1H-pyrazol-1-yl)-2,3-dihydro-1H-isoindol-1-one]
17 | 2.3 nM | O=C1c2cccc(-c3ncco3)c2CN1CCc1ccc2c(n1)CCCC2 [Compound F-6, 4-(1,3-oxazol-2-yl)-2-[2-(5,6,7,8-tetrahydroquinolin-2-yl)ethyl]-2,3-dihydro-1H-isoindol-1-one]
18 | 50 nM | Cn1cc(-c2cccc3c2CN(CCc2ccc4ncccc4n2)C3=O)nn1 [Compound H-2, 4-(1-methyl-1H 1,2,3-triazol-4-yl)-2-[2-(1,5-naphthyridin-2-yl)ethyl]isoindolin-1-one]
19 | 17.2 nM | O=C1c2cc(O)cc(Br)c2CN1CCc1ccc2ncccc2n1 [Compound I-4, 4-Bromo-6-hydroxy-2-[2-(1,5naphthyridin-2-yl)ethyl]isoindolin-1-one]
20 | 0.31 nM | O=C1c2cccc(-c3cscn3)c2CN1CCc1csc(-c2ccn[nH]2)n1 [Compound K-4, 2-(2-(2-(1H-pyrazol-5-yl)thiazol-4-yl)ethyl)-4-(thiazol-4-yl)isoindolin-1-one]
